Data as given in US20240208956A1, “1,3,4-OXADIAZOLE THIOCARBONYL COMPOUNDS AS HISTONE DEACETYLASE 6 INHIBITOR, AND PHARMACEUTICAL COMPOSITION COMPRISING THE SAME” (CHONG KUN DANG PHARMACEUTICAL CORP., priority 2021, published 2024).

Assays:
HDAC6 human recombinant = HDAC6 human recombinant (Homo sapiens (Human), UniProt Q9UBN7); assay: HDAC enzyme activity inhibition (in vitro), HDAC6 fluorimetric assay; format: biochemical; conditions: samples at 0.1-1000 nM; 37° C. 60 minutes; fluorescence Ex 390 nm, Em 460 nm
Method: Confirmation of HDAC Enzyme Activity Inhibition (In Vitro)
(§1) An HDAC enzyme inhibitory capacity of test material was measured by using HDAC1 Fluorimetric Drug Discovery Assay Kit (Enzolifesciences: BML-AK511) and HDAC6 human recombinant (Calbiochem: 382180). For a HDAC1 assay, samples were treated at a concentration of 100 nM, 1000 nM and 10000 nM. For an HDAC6 assay, samples were treated at a concentration of 0.1 nM, 1 nM, 10 nM, 100 nM and 1000 nM. After the sample treatment, a reaction was continued at 37° C. for 60 minutes, treated with a developer, and subjected to reaction at 37° C. for 30 minutes, after which fluorescence intensity (Ex 390 nm, Em 460 nm) was measured by using FlexStation3 (Molecular device). For final result values, each […] value was calculated with GraphPad Prism 4.0 program.

HDAC1 = HDAC1 (Homo sapiens (Human), UniProt Q13547); assay: HDAC enzyme activity inhibition (in vitro), HDAC1 Fluorimetric Drug Discovery Assay Kit; format: biochemical; conditions: samples at 100, 1000 and 10000 nM; 37° C. 60 minutes; fluorescence Ex 390 nm, Em 460 nm
Method: Experimental Example 1. Confirmation of HDAC Enzyme Activity Inhibition (In Vitro)
as §1

HDAC6 human recombinant, sequence (Q9UBN7 whole entry): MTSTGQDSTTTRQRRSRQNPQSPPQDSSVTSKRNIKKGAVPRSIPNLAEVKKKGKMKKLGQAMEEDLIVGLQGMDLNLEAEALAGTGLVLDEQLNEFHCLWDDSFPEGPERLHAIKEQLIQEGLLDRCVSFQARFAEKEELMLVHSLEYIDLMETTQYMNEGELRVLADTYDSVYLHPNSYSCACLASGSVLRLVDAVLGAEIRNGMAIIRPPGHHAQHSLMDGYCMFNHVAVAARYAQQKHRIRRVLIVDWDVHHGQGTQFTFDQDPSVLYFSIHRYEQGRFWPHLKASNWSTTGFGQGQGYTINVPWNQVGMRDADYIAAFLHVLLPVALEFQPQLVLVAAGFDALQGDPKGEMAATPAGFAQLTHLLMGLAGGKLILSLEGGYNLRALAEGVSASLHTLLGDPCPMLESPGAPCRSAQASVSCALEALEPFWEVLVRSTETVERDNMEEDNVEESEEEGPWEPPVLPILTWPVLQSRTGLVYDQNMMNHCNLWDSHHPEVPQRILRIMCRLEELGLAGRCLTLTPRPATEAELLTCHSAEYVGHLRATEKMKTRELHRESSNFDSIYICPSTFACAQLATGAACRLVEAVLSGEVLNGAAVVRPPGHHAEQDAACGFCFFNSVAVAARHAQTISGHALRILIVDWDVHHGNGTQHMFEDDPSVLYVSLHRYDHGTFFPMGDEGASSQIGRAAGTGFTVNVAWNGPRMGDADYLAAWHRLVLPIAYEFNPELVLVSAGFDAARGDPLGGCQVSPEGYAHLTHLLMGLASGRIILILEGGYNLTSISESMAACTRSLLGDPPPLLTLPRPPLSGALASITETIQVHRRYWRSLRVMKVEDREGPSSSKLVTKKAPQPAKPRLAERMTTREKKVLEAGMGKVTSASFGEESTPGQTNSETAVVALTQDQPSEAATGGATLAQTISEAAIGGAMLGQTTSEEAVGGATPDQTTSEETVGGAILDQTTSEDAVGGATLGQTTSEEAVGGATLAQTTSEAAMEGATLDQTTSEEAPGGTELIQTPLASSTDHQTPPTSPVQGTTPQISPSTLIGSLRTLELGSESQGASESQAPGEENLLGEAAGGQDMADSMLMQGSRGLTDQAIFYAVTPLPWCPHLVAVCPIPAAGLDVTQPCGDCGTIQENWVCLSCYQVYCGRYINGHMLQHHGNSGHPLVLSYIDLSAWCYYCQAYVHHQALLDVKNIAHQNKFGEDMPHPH
HDAC1, sequence (Q13547 whole entry): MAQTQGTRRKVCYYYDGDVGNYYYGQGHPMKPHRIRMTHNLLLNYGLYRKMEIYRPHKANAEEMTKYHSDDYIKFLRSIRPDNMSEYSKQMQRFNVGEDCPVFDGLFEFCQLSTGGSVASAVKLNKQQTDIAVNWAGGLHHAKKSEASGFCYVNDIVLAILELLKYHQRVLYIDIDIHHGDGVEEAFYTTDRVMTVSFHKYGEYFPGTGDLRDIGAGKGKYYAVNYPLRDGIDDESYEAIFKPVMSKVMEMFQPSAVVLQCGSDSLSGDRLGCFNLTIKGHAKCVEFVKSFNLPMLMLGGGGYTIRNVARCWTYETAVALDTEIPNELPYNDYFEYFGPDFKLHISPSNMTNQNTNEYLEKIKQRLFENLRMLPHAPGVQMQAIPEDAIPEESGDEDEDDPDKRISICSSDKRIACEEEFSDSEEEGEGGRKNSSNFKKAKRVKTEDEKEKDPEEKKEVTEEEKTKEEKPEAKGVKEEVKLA

SMILES	IC50 (HDAC6 human recombinant) [nM]	IC50 (HDAC1) [nM]
Fc1cc(-c2nnc(C(F)F)o2)ccc1CN(C(=S)N1CC2(C1)CN(C1COC1)C2)c1ccc(Cl)c(Cl)c1 [Compound 24, N-(3,4-dichlorophenyl)-N-(4-(5-(difluoromethyl)-1,3,4-oxadiazol-2-yl)-2-fluorobenzyl)-6-(oxetan-3-yl)-2,6-diazaspiro[3.3]heptan-2-carbothioamide]	83	> 10000
CN1CC2(C1)CN(C(=S)N(Cc1ccc(-c3nnc(C(F)F)o3)cc1F)c1ccc(F)c(Cl)c1)C2 [Compound 25, N-(3-chloro-4-fluorophenyl)-N-(4-(5-(difluoromethyl)-1,3,4-oxadiazol-2-yl)-2-fluorobenzyl)-6-methyl-2,6-diazaspiro[3.3]heptan-2-carbothioamide]	46	> 10000
CC(C)N1CC2(CN(C(=S)N(Cc3ccc(-c4nnc(C(F)F)o4)cc3F)c3ccc(F)c(Cl)c3)C2)C1 [Compound 28, N-(3-chloro-4-fluorophenyl)-N-(4-(5-(difluoromethyl)-1,3,4-oxadiazol-2-yl)-2-fluorobenzyl)-6-isopropyl-2,6-diazaspiro[3.3]heptan-2-carbothioamide]	77	> 10000
CC(C)N1CC2(CN(C(=S)N(Cc3ccc(-c4nnc(C(F)F)o4)cc3)c3ccc(F)c(Cl)c3)C2)C1 [Compound 29, N-(3-chloro-4-fluorophenyl)-N-(4-(5-(difluoromethyl)-1,3,4-oxadiazol-2-yl)benzyl)-6-isopropyl-2,6-diazaspiro[3.3]heptan-2-carbothioamide]	70	> 10000
CC(=O)N1CC2(C1)CN(C(=S)N(Cc1ccc(-c3nnc(C(F)F)o3)cc1F)c1ccc(F)c(F)c1)C2 [Compound 33, 6-acetyl-N-(4-(5-(difluoromethyl)-1,3,4-oxadiazol-2-yl)-2-fluorobenzyl)-N-(3,4-difluorophenyl)-2,6-diazaspiro[3.3]heptan-2-carbothioamide]	35	> 10000
Fc1cccc(N(Cc2ccc(-c3nnc(C(F)F)o3)cc2F)C(=S)N2CC3(C2)CN(C2COC2)C3)c1 [Compound 38, N-(4-(5-(difluoromethyl)-1,3,4-oxadiazol-2-yl)-2-fluorobenzyl)-N-(3-fluorophenyl)-6-(oxetan-3-yl)-2,6-diazaspiro[3.3]heptan-2-carbothioamide]	51	> 10000
CN1C[C@@H]2C[C@H]1CN2C(=S)N(Cc1ccc(-c2nnc(C(F)F)o2)cc1F)c1ccc(F)cc1 [Compound 39, (1S,4S)—N-(4-(5-(difluoromethyl)-1,3,4-oxadiazol-2-yl)-2-fluorobenzyl)-N-(4-fluorophenyl)-5-methyl-2,5-diazabicyclo[2.2.1]heptan-2-carbothioamide]	30	> 10000
CC(C)N1C[C@@H]2C[C@H]1CN2C(=S)N(Cc1ccc(-c2nnc(C(F)F)o2)cc1F)c1ccc(F)cc1 [Compound 40, (1S,4S)—N-(4-(5-(difluoromethyl)-1,3,4-oxadiazol-2-yl)-2-fluorobenzyl)-N-(4-fluorophenyl)-5-isopropyl-2,5-diazabicyclo[2.2.1]heptan-2-carbothioamide]	55	> 10000
Fc1ccc(N(Cc2ccc(-c3nnc(C(F)F)o3)cc2F)C(=S)N2C[C@@H]3C[C@H]2CN3C2COC2)cc1 [Compound 41, (1S,4S)—N-(4-(5-(difluoromethyl)-1,3,4-oxadiazol-2-yl)-2-fluorobenzyl)-N-(4-fluorophenyl)-5-(oxetan-3-yl)-2,5-diazabicyclo[2.2.1]heptan-2-carbothioamide]	73	> 10000
Fc1ccc(N(Cc2ccc(-c3nnc(C(F)F)o3)cc2F)C(=S)N2C[C@@H]3C[C@H]2CN3C2COC2)cc1F [Compound 43, (1S,4S)—N-(4-(5-(difluoromethyl)-1,3,4-oxadiazol-2-yl)-2-fluorobenzyl)-N-(3,4-difluorophenyl)-5-(oxetan-3-yl)-2,5-diazabicyclo[2.2.1]heptan-2-carbothioamide]	77	> 10000
CN1CC2(CCN(C(=S)N(Cc3ccc(-c4nnc(C(F)F)o4)cc3F)c3ccc(F)c(F)c3)CC2)C1 [Compound 44, N-(4-(5-(difluoromethyl)-1,3,4-oxadiazol-2-yl)-2-fluorobenzyl)-N-(3,4-difluorophenyl)-2-methyl-2,7-diazaspiro[3.5]nonan-7-carbothioamide]	80	> 10000

The remaining molecules from weak to strong by IC50 (HDAC6 human recombinant), led by results:

IC50 (HDAC6 human recombinant) [nM]	IC50 (HDAC1) [nM]	SMILES
196	> 10000	Fc1ccc(N(Cc2ccc(-c3nnc(C(F)F)o3)cc2F)C(=S)N2CCC3(CC2)CN(C2COC2)C3)cc1F [Compound 45, N-(4-(5-(difluoromethyl)-1,3,4-oxadiazol-2-yl)-2-fluorobenzyl)-N-(3,4-difluorophenyl)-2-(oxetan-3-yl)-2,7-diazaspiro[3.5]nonan-7-carbothioamide]
112	> 10000	Fc1ccc(N(Cc2ccc(-c3nnc(C(F)F)o3)cc2)C(=S)N2CC3(C2)CN(C2COC2)C3)cc1Cl [Compound 27, N-(3-chloro-4-fluorophenyl)-N-(4-(5-(difluoromethyl)-1,3,4-oxadiazol-2-yl)benzyl)-6-(oxetan-3-yl)-2,6-diazaspiro[3.3]heptan-2-carbothioamide]
89	> 10000	CN1CC2(C1)CN(C(=S)N(Cc1ccc(-c3nnc(C(F)F)o3)cc1)c1ccc(F)c(Cl)c1)C2 [Compound 26, N-(3-chloro-4-fluorophenyl)-N-(4-(5-(difluoromethyl)-1,3,4-oxadiazol-2-yl)benzyl)-6-methyl-2,6-diazaspiro[3.3]heptan-2-carbothioamide]
83	> 10000	Fc1ccc(N(Cc2ccc(-c3nnc(C(F)F)o3)cc2)C(=S)N2CC3(C2)CN(C2COC2)C3)cc1 [Compound 22, N-(4-(5-(difluoromethyl)-1,3,4-oxadiazol-2-yl)benzyl)-N-(4-fluorophenyl)-6-(oxetan-3-yl)-2,6-diazaspiro[3.3]heptan-2-carbothioamide]
70	> 10000	CC(C)N1CC2(CN(C(=S)N(Cc3ccc(-c4nnc(C(F)F)o4)cc3)c3ccc(F)cc3)C2)C1 [Compound 21, N-(4-(5-(difluoromethyl)-1,3,4-oxadiazol-2-yl)benzyl)-N-(4-fluorophenyl)-6-isopropyl-2,6-diazaspiro[3.3]heptan-2-carbothioamide]
67	> 10000	CC(C)N1CC2(CN(C(=S)N(Cc3ccc(-c4nnc(C(F)F)o4)cc3F)c3cccc(F)c3)C2)C1 [Compound 37, N-(4-(5-(difluoromethyl)-1,3,4-oxadiazol-2-yl)-2-fluorobenzyl)-N-(3-fluorophenyl)-6-isopropyl-2,6-diazaspiro[3.3]heptan-2-carbothioamide]
62	> 10000	CN1CC2(C1)CN(C(=S)N(Cc1ccc(-c3nnc(C(F)F)o3)cc1F)c1ccc(Cl)c(Cl)c1)C2 [Compound 23, N-(3,4-dichlorophenyl)-N-(4-(5-(difluoromethyl)-1,3,4-oxadiazol-2-yl)-2-fluorobenzyl)-6-methyl-2,6-diazaspiro[3.3]heptan-2-carbothioamide]
60	> 10000	CN1CC2(C1)CN(C(=S)N(Cc1ccc(-c3nnc(C(F)F)o3)cc1)c1ccc(F)cc1)C2 [Compound 20, N-(4-(5-(difluoromethyl)-1,3,4-oxadiazol-2-yl)benzyl)-N-(4-fluorophenyl)-6-methyl-2,6-diazaspiro[3.3]heptan-2-carbothioamide]
47	> 10000	Fc1ccc(N(Cc2ccc(-c3nnc(C(F)F)o3)cc2F)C(=S)N2CC3(C2)CN(C2COC2)C3)cc1F [Compound 34, N-(4-(5-(difluoromethyl)-1,3,4-oxadiazol-2-yl)-2-fluorobenzyl)-N-(3,4-difluorophenyl)-6-(oxetan-3-yl)-2,6-diazaspiro[3.3]heptan-2-carbothioamide]
45	> 10000	Fc1ccc(N(Cc2ccc(-c3nnc(C(F)F)o3)cc2)C(=S)N2CC3(C2)CN(C2COC2)C3)cc1F [Compound 32, N-(4-(5-(difluoromethyl)-1,3,4-oxadiazol-2-yl)benzyl)-N-(3,4-difluorophenyl)-6-(oxetan-3-yl)-2,6-diazaspiro[3.3]heptan-2-carbothioamide]
43	> 10000	CN1CC2(C1)CN(C(=S)N(Cc1ccc(-c3nnc(C(F)F)o3)cc1F)c1cccc(F)c1)C2 [Compound 36, N-(4-(5-(difluoromethyl)-1,3,4-oxadiazol-2-yl)-2-fluorobenzyl)-N-(3-fluorophenyl)-6-methyl-2,6-diazaspiro[3.3]heptan-2-carbothioamide]
35	> 10000	CC(C)N1CC2(CN(C(=S)N(Cc3ccc(-c4nnc(C(F)F)o4)cc3)c3ccc(F)c(F)c3)C2)C1 [Compound 31, N-(4-(5-(difluoromethyl)-1,3,4-oxadiazol-2-yl)benzyl)-N-(3,4-difluorophenyl)-6-isopropyl-2,6-diazaspiro[3.3]heptan-2-carbothioamide]
24	> 10000	CN1CC2(C1)CN(C(=S)N(Cc1ccc(-c3nnc(C(F)F)o3)cc1)c1ccc(F)c(F)c1)C2 [Compound 30, N-(4-(5-(difluoromethyl)-1,3,4-oxadiazol-2-yl)benzyl)-N-(3,4-difluorophenyl)-6-methyl-2,6-diazaspiro[3.3]heptan-2-carbothioamide]
